Source: ChEMBL document CHEMBL4725363 (J Med Chem, 2020)
The source made the active and inactive calls. The rule behind the calls is not given here.

Experiments:
[1] = biological target: cGMP-specific 3',5'-cyclic phosphodiesterase (Homo sapiens, UniProt O76074); test: Inhibition of human PDE5A1 (535-860 residues) expressed in Escherichia coli BL21 incubated for 15 mins using [3H]-cGMP as substrate by liquid scintillation counting method
[2] = biological target: Cytochrome P450 2D6 (Homo sapiens, UniProt P10635); test: Inhibition of CYP2D6 (unknown origin); type: ADME
[3] = Oral bioavailability in Sprague-Dawley rat at 5 mg/kg after 24 hrs by LC-MS/MS analysis; type: ADME, organism-based; details: in vivo
[4] = biological target: Cone cGMP-specific 3',5'-cyclic phosphodiesterase subunit alpha' (Homo sapiens, UniProt P51160); test: Inhibition of human PDE6C (2-854 residues) expressed in Sf9 cells incubated for 15 mins using [3H]-cGMP as substrate by liquid scintillation counting method
[5] = AUC (0 to infinity) in Sprague-Dawley rat at 2.5 mg/kg, iv after 24 hrs by LC-MS/MS analysis; type: ADME, organism-based; parameters: route intravenous, time 24 hrs, dose 2.5 mg/kg; details: in vivo
[6] = Cmax in Sprague-Dawley rat at 2.5 mg/kg, iv after 24 hrs by LC-MS/MS analysis; type: ADME, organism-based; parameters: route intravenous, time 24 hrs, dose 2.5 mg/kg; details: in vivo
[7] = Half life in Sprague-Dawley rat at 2.5 mg/kg, iv after 24 hrs by LC-MS/MS analysis; type: ADME, organism-based; details: in vivo
[8] = biological target: T1, Cytochrome P450 2B6 (Homo sapiens, UniProt P20813); test: Inhibition of CYP2B6 (unknown origin); type: ADME
T1 sequence (P20813 whole entry): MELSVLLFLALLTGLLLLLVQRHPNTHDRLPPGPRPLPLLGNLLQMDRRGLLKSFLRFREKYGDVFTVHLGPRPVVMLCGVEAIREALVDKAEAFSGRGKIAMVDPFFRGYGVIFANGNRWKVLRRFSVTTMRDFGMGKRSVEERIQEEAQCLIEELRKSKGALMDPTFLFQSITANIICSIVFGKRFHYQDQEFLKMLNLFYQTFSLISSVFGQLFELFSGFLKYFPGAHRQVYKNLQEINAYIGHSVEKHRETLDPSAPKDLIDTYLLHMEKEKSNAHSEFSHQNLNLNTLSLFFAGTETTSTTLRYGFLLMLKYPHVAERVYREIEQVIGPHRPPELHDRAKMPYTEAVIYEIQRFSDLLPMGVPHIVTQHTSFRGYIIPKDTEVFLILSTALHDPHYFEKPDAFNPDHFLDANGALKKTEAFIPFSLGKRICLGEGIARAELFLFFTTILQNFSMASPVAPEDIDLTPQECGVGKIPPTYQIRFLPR

[9] = tested on: Rattus norvegicus; test: Suppression of hypertension pressure in Wistar rat model of pulmonary hypertension assessed as reduction in MCT-induced wall thickness of small pulmonary arteries at 20 mg/kg/day, po for 3 weeks; type: functional, organism-based
[10] = biological target: Voltage-gated inwardly rectifying potassium channel KCNH2 (Homo sapiens, UniProt Q12809); test: Inhibition of human ERG expressed in CHO cells by patch-clamp electrophysiology method; type: cell-based
[11] = Tmax in Sprague-Dawley rat at 5 mg/kg, po after 24 hrs by LC-MS/MS analysis; type: ADME, organism-based; details: in vivo
[12] = Cmax in Sprague-Dawley rat at 5 mg/kg, po after 24 hrs by LC-MS/MS analysis; type: ADME, organism-based; parameters: route oral, dose 5 mg/kg, time 24 hrs; details: in vivo
[13] = tested on: Rattus norvegicus; test: Suppression of hypertension pressure in Wistar rat model of pulmonary hypertension at 20 mg/kg/day, po for 3 weeks; type: functional, organism-based

Cytochrome P450 2D6, sequence (P10635 whole entry): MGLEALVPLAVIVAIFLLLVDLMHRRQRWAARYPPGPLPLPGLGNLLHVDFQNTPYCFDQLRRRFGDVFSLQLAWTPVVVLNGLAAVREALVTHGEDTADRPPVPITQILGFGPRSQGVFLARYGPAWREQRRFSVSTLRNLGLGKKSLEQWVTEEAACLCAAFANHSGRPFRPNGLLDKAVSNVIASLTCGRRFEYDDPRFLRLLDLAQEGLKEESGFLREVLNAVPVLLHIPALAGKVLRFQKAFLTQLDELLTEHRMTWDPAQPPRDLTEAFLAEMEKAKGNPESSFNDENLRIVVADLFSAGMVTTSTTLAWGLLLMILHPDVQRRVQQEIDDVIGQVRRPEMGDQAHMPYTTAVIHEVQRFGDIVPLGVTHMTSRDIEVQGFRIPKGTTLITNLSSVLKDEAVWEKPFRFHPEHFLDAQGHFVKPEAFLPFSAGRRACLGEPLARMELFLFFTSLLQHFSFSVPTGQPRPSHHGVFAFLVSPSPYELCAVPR
Cone cGMP-specific 3',5'-cyclic phosphodiesterase subunit alpha', sequence (P51160 whole entry, the tested form may be a part): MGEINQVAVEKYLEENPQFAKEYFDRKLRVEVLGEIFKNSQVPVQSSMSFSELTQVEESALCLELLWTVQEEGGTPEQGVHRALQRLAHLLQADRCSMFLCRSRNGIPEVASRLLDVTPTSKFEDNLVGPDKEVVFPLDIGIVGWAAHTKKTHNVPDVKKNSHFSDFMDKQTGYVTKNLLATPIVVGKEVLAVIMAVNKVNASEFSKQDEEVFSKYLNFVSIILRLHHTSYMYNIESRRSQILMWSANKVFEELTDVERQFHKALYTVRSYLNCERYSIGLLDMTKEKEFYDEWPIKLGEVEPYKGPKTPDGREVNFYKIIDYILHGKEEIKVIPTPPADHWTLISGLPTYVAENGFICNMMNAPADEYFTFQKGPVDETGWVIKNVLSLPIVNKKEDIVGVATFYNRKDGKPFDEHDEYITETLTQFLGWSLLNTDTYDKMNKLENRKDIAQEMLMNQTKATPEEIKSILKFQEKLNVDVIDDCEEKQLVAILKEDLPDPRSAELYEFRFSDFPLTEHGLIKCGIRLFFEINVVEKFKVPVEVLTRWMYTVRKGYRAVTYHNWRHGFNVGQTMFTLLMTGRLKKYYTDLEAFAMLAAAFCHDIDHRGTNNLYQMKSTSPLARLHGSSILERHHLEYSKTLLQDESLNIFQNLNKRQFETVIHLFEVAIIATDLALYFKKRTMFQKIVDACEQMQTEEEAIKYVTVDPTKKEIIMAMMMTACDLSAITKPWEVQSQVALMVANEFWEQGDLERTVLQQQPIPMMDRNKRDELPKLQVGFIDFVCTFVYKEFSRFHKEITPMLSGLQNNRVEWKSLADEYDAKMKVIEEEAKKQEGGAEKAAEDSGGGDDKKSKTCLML
Voltage-gated inwardly rectifying potassium channel KCNH2, sequence (Q12809 whole entry): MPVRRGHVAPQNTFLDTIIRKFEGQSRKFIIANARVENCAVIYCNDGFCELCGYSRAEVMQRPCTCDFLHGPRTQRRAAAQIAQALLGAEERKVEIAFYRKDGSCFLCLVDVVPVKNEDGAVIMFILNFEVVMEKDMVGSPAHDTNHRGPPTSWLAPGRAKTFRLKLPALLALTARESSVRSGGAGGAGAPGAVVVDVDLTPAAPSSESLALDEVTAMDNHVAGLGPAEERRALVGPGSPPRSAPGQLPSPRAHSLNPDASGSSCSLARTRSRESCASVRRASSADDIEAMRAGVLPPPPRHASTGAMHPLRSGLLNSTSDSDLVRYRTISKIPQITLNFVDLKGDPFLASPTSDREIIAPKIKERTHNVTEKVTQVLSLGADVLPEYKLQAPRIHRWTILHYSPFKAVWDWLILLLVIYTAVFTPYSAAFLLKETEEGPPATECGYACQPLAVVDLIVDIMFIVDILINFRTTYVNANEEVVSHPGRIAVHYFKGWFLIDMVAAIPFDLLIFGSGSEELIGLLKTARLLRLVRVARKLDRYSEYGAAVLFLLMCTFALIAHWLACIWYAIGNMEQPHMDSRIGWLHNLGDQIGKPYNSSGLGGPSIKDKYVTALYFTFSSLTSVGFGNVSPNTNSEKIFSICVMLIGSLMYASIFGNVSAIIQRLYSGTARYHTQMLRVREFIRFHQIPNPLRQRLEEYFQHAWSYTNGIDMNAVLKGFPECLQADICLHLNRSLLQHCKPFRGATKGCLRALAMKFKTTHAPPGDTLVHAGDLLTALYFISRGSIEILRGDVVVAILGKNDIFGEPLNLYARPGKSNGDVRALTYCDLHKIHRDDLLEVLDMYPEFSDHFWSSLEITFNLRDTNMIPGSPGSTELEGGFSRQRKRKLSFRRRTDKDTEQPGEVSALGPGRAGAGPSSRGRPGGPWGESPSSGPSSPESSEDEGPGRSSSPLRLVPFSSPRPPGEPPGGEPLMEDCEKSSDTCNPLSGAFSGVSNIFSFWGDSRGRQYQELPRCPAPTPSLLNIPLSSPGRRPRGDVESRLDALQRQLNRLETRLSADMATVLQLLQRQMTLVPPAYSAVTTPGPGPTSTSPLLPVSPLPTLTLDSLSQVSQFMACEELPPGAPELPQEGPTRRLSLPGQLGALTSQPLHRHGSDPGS

COc1ccc2c3c([nH]c2c1)[C@@H]1N(CC3)C(=O)c2c(OC)cccc2N1C
IC50 [1]: 42 nM
IC50 [2]: 10 µM
bioavailability [3]: 14%
IC50 [4]: > 150 µM
AUC(0-inf) [5]: 520 ng·h/mL
Cmax [6]: 1800 ng/mL
half-life [7]: 13.2 min
IC50 [8]: 10 µM
Activity [9]: Active
IC50 [10]: 20 µM
Tmax [11]: 49.8 min
Cmax [12]: 54.4 ng/mL
Activity [13]: Active
